# Laboratory results published in patent EP4772649A1, “SCREENING METHOD FOR ODOR-SUPPRESSING MATERIAL” (Takasago International Corporation, priority 2023, dated 2025).
# Entries after “also recorded” stand apart in the source; their conditions may differ.
# How the values were obtained:
# [1] = system: olfactory receptor OR2AG2; assay: Antagonist screening: suppression of OR2AG2 response by luciferase reporter gene assay (Normalized Response); assay type: cell-based, human
# Procedure: The human olfactory receptor OR2AG2 gene expression vector was cloned, and HEK293T cells expressing the olfactory receptor OR2AG2 gene were used to perform an antagonist screening in which the effect of test substances on suppressing OR2AG2 response is measured by a luciferase reporter gene assay. In the luciferase reporter gene assay, each of approximately 500 test substances was individually mixed with each "dust odor" compound sample, and the Fold Increase value obtained in each test with the test substance mixed was calculated as the Normalized Response, assuming that the Fold Increase value obtained in the test without mixing any test substance was 1. The concentrations of the "dust odor" compounds used as samples were set as follows: a) 3-ethyl-2-pentylpyridine, 300 µM; b) 2-methoxy-3-isopropylpyrazine, 500 µM; c) 2-isobutyl-3-methoxypyrazine, 500 µM; and d) 2-sec-butyl-3-methoxypyrazine, 500 µM. […] As examples of antagonists thereby identified for each of the "dust odor" compounds a) to d), a) 2,4-decadienal, b) trans-2-nonenal, c) 2,4-undecadienal, and d) 2,4-decadienal were measured for their concentration-dependent effects in suppressing OR2AG2 response to each sample substance using a luciferase reporter gene assay. The concentrations of the samples were set as follows: a) 3-ethyl-2-pentylpyridine, 300 µM; b) 2-methoxy-3-isopropylpyrazine, 500 µM; c) 2-isobutyl-3-methoxypyrazine, 500 µM; and d) 2-sec-butyl-3-methoxypyrazine, 500 µM. The concentrations of the antagonists for each sample were set at 0 µM, 10 µM, 30 µM, 100 µM, and 300 µM.
# As in (2-3) of Example 2, HEK293T cells expressing the olfactory receptor OR2AG2 gene were used to determine the effect of test substances in suppressing OR2AG2 response to an odor solution sample with unknown components containing "dust odor" by antagonist screening using a luciferase reporter gene assay. […] As an example of antagonist, the effect of trans-2-nonenal in suppressing OR2AG2 response to the "dust odor" solution with unknown components was measured by a luciferase reporter gene assay. The final concentration of the sample was 0.1 mass%, and the concentrations of trans-2-nonenal relative to the sample were 0 µM, 1 µM, 2 µM, and 4 µM.
# [2] = system: olfactory receptor OR2AG1; details: Non Patent Literature 6; cited from earlier work
# [3] = system: olfactory receptor OR2AG2; assay: Luciferase reporter gene assay of olfactory receptor response (Fold Increase) in HEK293T cells expressing OR2AG2; assay type: cell-based, human; details: for OR2AG2 response (Fold Increase value): screening of 1,367 odorant substances, 1 µM to 1 mM, Figure 2
# Procedure: 0.05 µg of the human olfactory receptor gene expression vector, 0.01 µg of RTP1S vector, 0.01 µg of the firefly luciferase vector pGL4.29 (Promega) containing a cAMP response element promoter, and 0.005 µg of the Renilla luciferase vector pGL4.74 (Promega) containing a thymidine kinase promoter were dissolved in 10 µL of Opti-MEM I (gibco) to prepare a gene solution (for one well). HEK293T cells were seeded at 100 µL per well in a 96-well plate (Biocoat, Corning) at a cell number that would reach confluence after 24 hours. The gene solution was added to each well using lipofection in accordance with the instructions for Lipofectamine 3000 to introduce the gene into the cells, which were then cultured at 37°C in a 5% carbon dioxide atmosphere for 24 hours.
# After removing the culture medium, 60 µL of an odorant compound sample prepared in CD293 medium (gibco) (supplemented with 20 µM L-glutamine), at the concentration required for measurement, was added to each well. After stimulation for 3 hours, luciferase activity was measured in accordance with the instructions for the Dual-Luciferase Reporter Assay System (Promega). The response intensity of the olfactory receptor was determined using, as an index, a Fold Increase value obtained by dividing the luciferase activity generated by stimulation with the odorant compound by the luciferase activity generated in a test system free of the odorant compound.
# For odorant substances whose response values in the luciferase reporter gene assay were equal to or greater than a predetermined threshold, the primary note from the odor-note information was extracted, and the proportion of each odor note was determined.
# To extract the "dust odor" generated when aspartame is combined with certain fruit flavors, as described in Patent Literature 1, which is well-known as a "dust odor" of unknown causative substance, aspartame, trans-2-hexenal, and hexanal were mixed at a 1:1:1 (mass ratio) and gently heated at 60°C for one week, after which the reaction product was extracted with hexane. The present extract was fractionated by medium-pressure HPLC with a silica gel column using hexane and ethyl acetate, then fractionated by medium-pressure HPLC with an ODS column using water and acetonitrile, and further fractionated by high-pressure HPLC with an ODS column using water and acetonitrile, to obtain an odor solution containing "dust odor." This "dust odor" solution with unknown components was added to HEK293T cells expressing the olfactory receptor OR2AG2 gene at final concentrations of 0.05 mass%, 0.1 mass%, and 0.2 mass%, and a luciferase reporter gene assay was performed.
# [4] = system: OR2M3; details: Patent Literature 2; cited from earlier work
# [5] = system: OR11A1; details: Patent Literature 2; cited from earlier work
structure (smiles),measurement,setting,value
"CCCCCC=CC=CC=O [2,4-decadienal]",Normalized Response,"[1]; against 2-sec-butyl-3-methoxypyrazine 500 µM, test substance 1 µM to 1 mM",less than 1
same,Normalized Response,"[1]; against 3-ethyl-2-pentylpyridine 300 µM, test substance 1 µM to 1 mM",less than 1
"CCCCCCC=CC=CC=O [2,4-undecadienal]",Normalized Response,"[1]; against 2-isobutyl-3-methoxypyrazine 500 µM, test substance 1 µM to 1 mM",less than 1
COc1nccnc1CC(C)C [2-isobutyl-3-methoxypyrazine],response of olfactory receptor OR2AG1,[2],responds
same,response of olfactory receptor OR2AG2 (Fold Increase value),"[3]; 1 mM odorant, screening of 396 human olfactory receptors, Figure 1",extremely strong response; also recorded: strong and specific response
same,OR2AG2 response (Fold Increase value),[3],trigger OR2AG2 response
COc1nccnc1C(C)C [2-methoxy-3-isopropylpyrazine],response of olfactory receptor OR2AG1,[2],responds
same,OR2AG2 response (Fold Increase value),[3],trigger OR2AG2 response
CC1(O)CC2CCC1(C)C2(C)C (stereo not drawn) [2-methylisoborneol],response of olfactory receptor OR2M3,[4],specifically respond
CCC(C)c1nccnc1OC (stereo not drawn) [2-sec-butyl-3-methoxypyrazine],response of olfactory receptor OR2AG1,[2],responds
same,OR2AG2 response (Fold Increase value),[3],trigger OR2AG2 response
CCCCCc1ncccc1CC [3-ethyl-2-pentylpyridine],OR2AG2 response (Fold Increase value),[3],trigger OR2AG2 response
CC1CCCC2(C)CCCCC12O (stereo not drawn) [geosmin],response of olfactory receptor OR11A1,[5],specifically respond
CCCCCC/C=C/C=O [trans-2-nonenal],Normalized Response,"[1]; against 0.1 mass% odor solution with unknown components containing ""dust odor""",below 1
same,Normalized Response,"[1]; against 2-methoxy-3-isopropylpyrazine 500 µM, test substance 1 µM to 1 mM",less than 1
